Results as given in US9284348B2, “Method for synthesis of peptide using a carrier” (JITSUBO Co., Ltd., priority 2005, dated 2016).
Values after ≈ are worked out from the molar mass of the structure shown.

Experiments:
[1] = Evaluation of separation efficiency: excision of the compound from the carrier with trifluoroacetic acid/dichloromethane, material consumption by HPLC; format: physicochemical
Experimental: By stirring the obtained compound 7 (4-iodo-benzoic acid 2,4-bis-octadecyloxybenzyl ester) in solvents listed in Table 2 and for the times shown in Table 2, separation of the compound from the carrier was performed to obtain the reaction rate. In this case, the reaction rate was calculated by assessing the disappearance of material by HPLC.
Regarding compound 9 (4-iodo-benzoic acid 3,4,5-tris-octadecyloxybenzyl ester) having the following formula 6, which was prepared by condensing 4-iodobenzoic acid to compound 6 (3,4,5-tris-octadecyloxybenzyl alcohol), the separation reaction rate was measured under various conditions similar to in Example 2.
The above-obtained compound was evaluated for the separation efficiency, similar to Example 3, when it was stirred in dichloromethane containing 1% trifluoroacetic acid for 30 min. As a result, the reaction rate was 100%.

[2] = Evaluation of solubility in organic solvents at 25° C.; format: physicochemical; conditions: tetrahydrofuran, organic solvent or mixture
Experimental: The compound 2 (2,4-bisoctadecyloxyphenylmethanol) thus obtained was measured for solubility in hexane, cyclohexane, dichloromethane and tetrahydrofuran, respectively, when used as solvents at 25° C.
3,4,5-Tris-octadecyloxybenzylalcohol (compound 6) having the following chemical formula was measured for solubility in various solvents at 25° C. similar to as in Example 1.

[3] = 1% trifluoroacetic acid/dichloromethane, 30 min
[4] = 10% trifluoroacetic acid/dichloromethane, 120 min
[5] = 50% trifluoroacetic acid/dichloromethane, 120 min

| SMILES | Reaction rate (material consumption evaluated by HPLC measurement) [1, 3] | Reaction rate (material consumption evaluated by HPLC measurement) [1, 4] [%] | Reaction rate (material consumption evaluated by HPLC measurement) [1, 5] [%] | solubility [2] [mg/mL] |
| --- | --- | --- | --- | --- |
| CCCCCCCCCCCCCCCCCCOc1ccc(COC(=O)c2ccc(I)cc2)c(OCCCCCCCCCCCCCCCCCC)c1 [Compound 7, 4-iodo-benzoic acid 2,4-bis-octadecyloxybenzyl ester] | 100% | 100 | 100 |  |
| CCCCCCCCCCCCCCCCCCOc1cc(COC(=O)c2ccc(I)cc2)cc(OCCCCCCCCCCCCCCCCCC)c1OCCCCCCCCCCCCCCCCCC [Compound 9, 4-iodo-benzoic acid 3,4,5-tris-octadecyloxybenzyl ester, reference compound] | 1< % | 12 | 100 |  |
| CCCCCCCCCCCCCCCCCCCCCCOc1ccc(COC(=O)c2ccc(I)cc2)c(OCCCCCCCCCCCCCCCCCCCCCC)c1 [4-iodo-benzoic acid 2,4-bis-docosanoxybenzyl ester] | 100% |  |  |  |
| CCCCCCCCCCCCCCCCCCCCCCOc1ccc(CO)c(OCCCCCCCCCCCCCCCCCCCCCC)c1 [2,4-bis-docosanoxyphenyl methanol] |  |  |  | 236 (≈ 312 mM) |
